For one experiment, the target named is T1, unmodified α7–5HT3 (UniProt P23979+P36544).
T1 construct: expressed in transfected cells; host or cells: HEK293 (ATCC CRL-1573), pcDNA3.1
More on the design: method as in PMID 30872534. The note with it: cited from earlier work.

A further experiment concerns the target T2, unmodified α7–GlyR (Homo sapiens, UniProt P23415+P36544).
T2 construct: expressed in transfected cells; host or cells: HEK293 (ATCC CRL-1573), pcDNA3.1
On the set-up: method as in PMID 30872534. The note with it: cited from earlier work.

The test system of another experiment is α7 nAChR. The settings on record: cited from earlier work.
The target of another experiment is coca-5HT3 (Homo sapiens, UniProt P36544, G175K/L141G/Y210F/Y217F). The experiment is described as follows: [^3H]ASEM displacement, membranes of HEK293 cells expressing coca-5HT3. In kind it is binding, human α7 nAChR LBD, mouse 5HT3 IPD. The settings on record: for [3H]ASEM binding, normalised dose-response (DR replicates): HotNM 2.000. Here is the method: (§1) Cells were suspended in Tris-HCl 50 mM pH 7.4 supplemented with protease inhibitor cocktail (1:100, Sigma-Aldrich). HEK293 cells were disrupted with a 6 Polytron homogenizer (Kinematica). Homogenates were centrifuged at 48,000g (50 min, 4 °C) and washed twice in the same conditions to isolate the membrane fraction. Protein was quantified using the bicinchoninic acid method (Pierce). […] Free and membrane-bound radioligands were separated by rapid filtration of 500 μl aliquots in a 96-well plate harvester (Brandel) and washed with 2 ml of ice-cold Tris-HCl buffer. Microscint-20 scintillation liquid (65 μl per well, PerkinElmer) was added to the filter plates, plates were incubated overnight at room temperature and radioactivity counts were determined in the MicroBeta2 plate counter (PerkinElmer) with an efficiency of 41%. Two-site competition curves were fitted using Prism 10 (GraphPad). Ki values were calculated using the Cheng–Prusoff equation.

The next experiment concerns the target T3, coca-GlyR (Homo sapiens, UniProt P23415+P36544, G175K/L141G/Y217F).
T3 construct: expressed in transfected cells; host or cells: HEK293 (ATCC CRL-1573), pcDNA3.1
Briefly: [^3H]ASEM displacement, membranes of HEK293 cells expressing coca-GlyR. The class given is binding. The method, then:
as §1

The mark [1] stands for this setting: Two sites - Fit Ki, best-fit value per replicate.
[2] abbreviates: Two sites - Fit Ki, best-fit value, single experiment.

Data on 2 compounds can be found in PMC12527922, “Cocaine chemogenetics blunts drug-seeking by synthetic physiology” (Nature, 2025).

“And” between values parts separate entries of the source, which are not always exact repeats. Identical values can stand only once.

Chain of coca-5HT3 (P23979 242-489): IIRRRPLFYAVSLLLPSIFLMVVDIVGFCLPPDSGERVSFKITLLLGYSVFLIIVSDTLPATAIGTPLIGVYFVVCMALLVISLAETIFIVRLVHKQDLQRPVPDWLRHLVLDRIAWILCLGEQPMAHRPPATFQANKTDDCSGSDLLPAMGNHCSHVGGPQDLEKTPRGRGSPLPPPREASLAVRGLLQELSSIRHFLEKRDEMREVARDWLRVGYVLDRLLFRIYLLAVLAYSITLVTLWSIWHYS
Chain of coca-5HT3 (P36544 23-224 L141G/G175K/Y210F/Y217F): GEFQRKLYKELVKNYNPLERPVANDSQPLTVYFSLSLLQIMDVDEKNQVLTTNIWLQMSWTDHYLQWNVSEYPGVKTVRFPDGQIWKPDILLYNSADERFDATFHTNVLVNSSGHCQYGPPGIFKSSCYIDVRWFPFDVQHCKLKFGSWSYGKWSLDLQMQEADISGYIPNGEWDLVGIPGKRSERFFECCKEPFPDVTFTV
T1 sequence (P36544+P23979 fused P36544:T225I/P36544:M226I): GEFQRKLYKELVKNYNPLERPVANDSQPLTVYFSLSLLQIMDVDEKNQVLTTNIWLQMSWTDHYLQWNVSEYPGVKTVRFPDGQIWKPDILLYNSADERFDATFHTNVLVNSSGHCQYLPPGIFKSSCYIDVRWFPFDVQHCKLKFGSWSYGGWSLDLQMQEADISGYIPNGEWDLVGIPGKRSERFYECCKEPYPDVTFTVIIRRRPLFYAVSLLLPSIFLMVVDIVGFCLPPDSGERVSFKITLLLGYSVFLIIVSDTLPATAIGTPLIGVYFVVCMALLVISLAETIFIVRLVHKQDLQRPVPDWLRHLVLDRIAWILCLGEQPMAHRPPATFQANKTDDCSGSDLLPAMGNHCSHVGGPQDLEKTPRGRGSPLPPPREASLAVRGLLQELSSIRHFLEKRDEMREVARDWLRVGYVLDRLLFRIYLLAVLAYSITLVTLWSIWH
T2 sequence (P36544+P23415 fused): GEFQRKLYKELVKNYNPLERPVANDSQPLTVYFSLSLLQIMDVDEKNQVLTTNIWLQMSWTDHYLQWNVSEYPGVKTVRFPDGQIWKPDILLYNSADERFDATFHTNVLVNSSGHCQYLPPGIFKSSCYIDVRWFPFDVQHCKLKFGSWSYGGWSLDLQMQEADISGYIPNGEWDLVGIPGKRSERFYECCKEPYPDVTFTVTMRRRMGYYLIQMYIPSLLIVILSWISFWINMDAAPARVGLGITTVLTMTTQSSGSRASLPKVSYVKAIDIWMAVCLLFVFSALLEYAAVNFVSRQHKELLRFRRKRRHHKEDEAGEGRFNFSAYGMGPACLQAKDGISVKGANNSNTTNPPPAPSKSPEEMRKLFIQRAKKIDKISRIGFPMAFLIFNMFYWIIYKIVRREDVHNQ
T3 sequence (P36544+P23415 fused P36544:L141G/P36544:G175K/P36544:Y217F): as the sequence (P36544+P23415 fused) above, with L119G, G153K, Y195F counted along it

Take `CN1[C@@H]2CC[C@H]1C[C@@H](OC(=O)c1c[nH]c3ccccc13)C2` [tropisetron]: on unmodified α7–5HT3, the “activity at chimeric channel α7–5HT3” value is “agonist”. For the same compound, at unmodified α7–GlyR, the “activity at chimeric channel α7–GlyR” value was “agonist”. The “activity at α7 nAChR” value in the experiment on α7 nAChR is reported as “agonist”.

With `O=S1(=O)c2cc(N3CCN4CCC3CC4)ccc2-c2cccc(F)c21` [ASEM], the “binding to coca-5HT3” value on coca-5HT3 was “biphasic manner”. The “FractionHi MEAN” value is listed as 0.4238 on coca-5HT3 (Two sites - Fit Ki, MEAN of 3 experiments) and 0.3877 at coca-5HT3 (Two sites - Fit Ki, MEAN of replicates). Besides, the Bottom at coca-5HT3 (setting [1]) was -0.2261 and -1.876 and -13.02. Besides, the Top at coca-5HT3 (setting [1]) is 108.2 and 99.61 and 97.94; at coca-5HT3 (setting [2]), 103.6 and 103.2 and 103.8. The FractionHi is 0.4342 and 0.3061 and 0.4229 at coca-5HT3 (Two sites - Fit Ki, best-fit value per replicate, fraction of high-affinity sites); 0.4739 and 0.3529 and 0.4445 on coca-5HT3 (setting [2]). Further, the “[3H]ASEM binding, normalised dose-response (DR replicates)” value was 0 and 2.042 and -2.042 at coca-5HT3 (competitor log(M) -4); 13.773 and 20.58 at coca-5HT3 (competitor log(M) -5); 32.147 and 34.87 and 51.889 on coca-5HT3 (competitor log(M) -5.5); 39.688 and 59.43 and 60.791 at coca-5HT3 (competitor log(M) -6); 51.256 and 70.998 and 34.237 at coca-5HT3 (competitor log(M) -6.5); 64.248 and 83.99 and 53.356 at coca-5HT3 (competitor log(M) -7). The “[3H]ASEM binding, normalised dose-response (DR replicates)” value was 67.668 and 43.16 on coca-5HT3 (competitor log(M) -8); 58.761 and 45.827 and 64.888 on coca-5HT3 (competitor log(M) -8.5); 68.4 and 67.719 on coca-5HT3 (competitor log(M) -9); 73.805 and 71.082 and 77.209 at coca-5HT3 (competitor log(M) -9.5); 78.63 and 99.734 and 90.884 at coca-5HT3 (competitor log(M) -10); 94.278 and 80.663 and 86.79 on coca-5HT3 (competitor log(M) -10.5). In addition, the “[3H]ASEM binding, normalised dose-response (DR replicates)” value at coca-5HT3 (competitor log(M) -11) was 97.033 and 84.779 and 104.521; on coca-5HT3 (competitor log(M) -13), 111.346 and 109.984. Besides, the “[3H]ASEM binding remaining, single experiment” value (“[3H]ASEM binding remaining” below) on coca-5HT3 (competitor log(M) -5) was 21.992 and 15.466 and 20.212; on coca-5HT3 (competitor log(M) -5.5), 26.835 and 27.725; at coca-5HT3 (competitor log(M) -6) it was 38.451 and 39.34; on coca-5HT3 (competitor log(M) -6.5), 45.049 and 48.906 and 53.356; at coca-5HT3 (competitor log(M) -7) it was 68.627 and 77.823 and 60.024; on coca-5HT3 (competitor log(M) -8), 69.758 and 69.462 and 44.246. The “[3H]ASEM binding remaining” value at coca-5HT3 (competitor log(M) -8.5) is 79.055 and 76.385 and 69.859; on coca-5HT3 (competitor log(M) -9), 118.645 and 95.803 and 67.325; at coca-5HT3 (competitor log(M) -9.5), 111.297 and 122.273 and 76.589; on coca-5HT3 (competitor log(M) -10), 101.728 and 95.202 and 81.556; at coca-5HT3 (competitor log(M) -10.5), 92.261 and 100.567 and 96.414; on coca-5HT3 (competitor log(M) -11), 96.153 and 103.569 and 104.162. Also, the “[3H]ASEM binding remaining” value on coca-5HT3 (competitor log(M) -13) is 102.966 and 93.474 and 103.56. At coca-GlyR, the “binding to coca-GlyR” value was “biphasic manner”.
